Reference: PubChem BioAssay (NCI)
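These data come from cells grown in 96-well plates and exposed to compound for 48 hours at five concentrations. Abbreviation: GI50, concentration required for 50% inhibition of growth. TGI marks complete inhibition of growth.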

Experiments:
Assay in all cases: growth of human tumour cells (NCI), 48 h
[1] = test system: 786-0 renal
[2] = test system: A498 renal
[3] = test system: A549 NSCLC
[4] = test system: ACHN renal
[5] = test system: BT-549 breast
[6] = test system: CAKI-1 renal
[7] = test system: CCRF-CEM leukemia
[8] = test system: COLO 205 colon
[9] = test system: DU-145 prostate
[10] = test system: EKVX NSCLC
[11] = test system: HCC-2998 colon
[12] = test system: HCT-116 colon
[13] = test system: HCT-15 colon
[14] = test system: HL-60(TB) leukemia
[15] = test system: HOP-62 NSCLC
[16] = test system: HOP-92 NSCLC
[17] = test system: HS 578T breast
[18] = test system: HT29 colon
[19] = test system: IGROV1 ovarian
[20] = test system: K-562 leukemia
[21] = test system: KM12 colon
[22] = test system: LOX IMVI melanoma
[23] = test system: M14 melanoma
[24] = test system: MALME-3M melanoma
[25] = test system: MCF7 breast
[26] = test system: MDA-MB-231 breast
[27] = test system: MOLT-4 leukemia
[28] = test system: NCI-H226 lung
[29] = test system: NCI-H23 lung
[30] = test system: NCI-H460 lung
[31] = test system: NCI-H522 lung
[32] = test system: NCI/ADR-RES ovarian
[33] = test system: OVCAR-3 ovarian
[34] = test system: OVCAR-4 ovarian
[35] = test system: OVCAR-5 ovarian
[36] = test system: OVCAR-8 ovarian
[37] = test system: PC-3 prostate
[38] = test system: RPMI-8226 leukemia
[39] = test system: RXF 393 renal
[40] = test system: SF-268 CNS
[41] = test system: SF-295 CNS
[42] = test system: SF-539 CNS
[43] = test system: SK-MEL-2 melanoma
[44] = test system: SK-MEL-5 melanoma
[45] = test system: SK-OV-3 ovarian
[46] = test system: SN12C renal
[47] = test system: SNB-19 CNS
[48] = test system: SNB-75 CNS
[49] = test system: SR leukemia
[50] = test system: SW-620 colon
[51] = test system: T-47D breast
[52] = test system: TK-10 renal
[53] = test system: U251 CNS
[54] = test system: UACC-257 melanoma
[55] = test system: UACC-62 melanoma
[56] = test system: UO-31 renal
[57] = test system: SK-MEL-28 melanoma

Structure (SMILES): CCO/C=N/C1=C(C#N)C(c2ccc(OC)cc2)c2sc3c(F)cccc3c2O1 (centres undefined)
- GI50 [1]: 4.85 µM
- TGI [1]: 68.9 µM
- GI50 [2]: 2.18 µM
- TGI [2]: 7.8 µM
- GI50 [3]: 2.22 µM
- TGI [3]: > 100 µM
- GI50 [4]: 5.57 µM
- TGI [4]: > 100 µM
- GI50 [5]: 7.17 µM
- TGI [5]: > 100 µM
- GI50 [6]: 3.3 µM
- TGI [6]: > 100 µM
- GI50 [7]: 2.69 µM
- TGI [7]: 28.7 µM
- GI50 [8]: 3.33 µM
- TGI [8]: 15 µM
- GI50 [9]: 3.57 µM
- TGI [9]: 57.2 µM
- GI50 [10]: 7.12 µM
- TGI [10]: > 100 µM
- GI50 [11]: 5.12 µM
- TGI [11]: 32.6 µM
- GI50 [12]: 2020 nM
- TGI [12]: > 100 µM
- GI50 [13]: 1670 nM
- TGI [13]: 26.7 µM
- GI50 [14]: 2000 nM
- TGI [14]: 5.5 µM
- GI50 [15]: 2.9 µM
- TGI [15]: 47.5 µM
- GI50 [16]: 3.21 µM
- TGI [16]: 43.6 µM
- GI50 [17]: 2110 nM
- TGI [17]: 7.93 µM
- GI50 [18]: 3.23 µM
- TGI [18]: 16.6 µM
- GI50 [19]: 2730 nM
- TGI [19]: > 100 µM
- GI50 [20]: 537 nM
- TGI [20]: > 100 µM
- GI50 [21]: 2520 nM
- TGI [21]: 72 µM
- GI50 [22]: 3080 nM
- TGI [22]: 12.4 µM
- GI50 [23]: 1700 nM
- TGI [23]: > 100 µM
- GI50 [24]: 11.3 µM
- TGI [24]: > 100 µM
- GI50 [25]: 1440 nM
- TGI [25]: 50.9 µM
- GI50 [26]: 3.87 µM
- TGI [26]: 30.7 µM
- GI50 [27]: 2.8 µM
- TGI [27]: 13.5 µM
- GI50 [28]: 2890 nM
- TGI [28]: 42.1 µM
- GI50 [29]: 3.29 µM
- TGI [29]: > 100 µM
- GI50 [30]: 2.82 µM
- TGI [30]: 13.5 µM
- GI50 [31]: 0.569 µM
- TGI [31]: 3.84 µM
- GI50 [32]: 1250 nM
- TGI [32]: 5.03 µM
- GI50 [33]: 2200 nM
- TGI [33]: 9.7 µM
- GI50 [34]: 5.59 µM
- TGI [34]: > 100 µM
- GI50 [35]: 6.8 µM
- TGI [35]: 76.3 µM
- GI50 [36]: 4.06 µM
- TGI [36]: > 100 µM
- GI50 [37]: 2.86 µM
- TGI [37]: > 100 µM
- GI50 [38]: 3.26 µM
- TGI [38]: 16.3 µM
- GI50 [39]: 2 µM
- TGI [39]: 16.5 µM
- GI50 [40]: 4.31 µM
- TGI [40]: > 100 µM
- GI50 [41]: 4.44 µM
- TGI [41]: 62.3 µM
- GI50 [42]: 2180 nM
- TGI [42]: 6.28 µM
- GI50 [43]: 3.8 µM
- TGI [43]: 78.3 µM
- GI50 [44]: 3.24 µM
- TGI [44]: 15.7 µM
- GI50 [45]: 4.67 µM
- TGI [45]: > 100 µM
- GI50 [46]: 3.75 µM
- TGI [46]: 55 µM
- GI50 [47]: 4.02 µM
- TGI [47]: > 100 µM
- GI50 [48]: 1660 nM
- TGI [48]: 5.67 µM
- GI50 [49]: 1040 nM
- TGI [49]: 17.5 µM
- GI50 [50]: 2.2 µM
- TGI [50]: > 100 µM
- GI50 [51]: 3.51 µM
- TGI [51]: > 100 µM
- GI50 [52]: 6.74 µM
- TGI [52]: > 100 µM
- GI50 [53]: 3.48 µM
- TGI [53]: 19.7 µM
- GI50 [54]: 14.8 µM
- TGI [54]: > 100 µM
- GI50 [55]: 1840 nM
- TGI [55]: > 100 µM
- GI50 [56]: 4.03 µM
- TGI [56]: > 100 µM

Structure (SMILES): O=C(Nc1nc(-c2ccc(Cl)cc2)cs1)c1cc(-c2ccc(Br)cc2)nc2ccc(Cl)cc12
- GI50 [1]: 3.53 µM
- TGI [1]: 67.1 µM
- GI50 [2]: 30.7 µM
- TGI [2]: > 100 µM
- GI50 [3]: 43.8 µM
- TGI [3]: > 100 µM
- GI50 [4]: 5.18 µM
- TGI [4]: > 100 µM
- GI50 [5]: 2.47 µM
- TGI [5]: 7.89 µM
- GI50 [6]: 20.5 µM
- TGI [6]: > 100 µM
- GI50 [7]: 4.06 µM
- TGI [7]: > 100 µM
- GI50 [8]: 26.9 µM
- TGI [8]: > 100 µM
- GI50 [9]: 3.67 µM
- TGI [9]: > 100 µM
- GI50 [10]: 15.3 µM
- TGI [10]: > 100 µM
- GI50 [11]: 19.4 µM
- TGI [11]: > 100 µM
- GI50 [12]: 876 nM
- TGI [12]: 11.3 µM
- GI50 [13]: 3120 nM
- TGI [13]: 26.6 µM
- GI50 [15]: 4.66 µM
- TGI [15]: > 100 µM
- GI50 [16]: 2.98 µM
- TGI [16]: 22.2 µM
- GI50 [17]: 2710 nM
- TGI [17]: 18.2 µM
- GI50 [18]: 3.89 µM
- TGI [18]: > 100 µM
- GI50 [19]: 2700 nM
- TGI [19]: > 100 µM
- GI50 [20]: 3360 nM
- TGI [20]: > 100 µM
- GI50 [21]: 3350 nM
- TGI [21]: 27.1 µM
- GI50 [22]: 2770 nM
- TGI [22]: > 100 µM
- GI50 [23]: 2160 nM
- TGI [23]: 11.2 µM
- GI50 [24]: 5.59 µM
- TGI [24]: 76.5 µM
- GI50 [25]: 2620 nM
- TGI [25]: > 100 µM
- GI50 [26]: 3.02 µM
- TGI [26]: 15.3 µM
- GI50 [27]: 3.77 µM
- TGI [27]: > 100 µM
- GI50 [28]: 2980 nM
- TGI [28]: 15.4 µM
- GI50 [29]: 5.64 µM
- TGI [29]: > 100 µM
- GI50 [30]: 32.7 µM
- TGI [30]: > 100 µM
- GI50 [31]: 7.87 µM
- TGI [31]: > 100 µM
- GI50 [32]: 3970 nM
- TGI [32]: > 100 µM
- GI50 [33]: 2860 nM
- TGI [33]: 9.19 µM
- GI50 [34]: 7.1 µM
- TGI [34]: > 100 µM
- GI50 [35]: 28.6 µM
- TGI [35]: > 100 µM
- GI50 [36]: 3.94 µM
- TGI [36]: 62.4 µM
- GI50 [37]: 4.16 µM
- TGI [37]: > 100 µM
- GI50 [38]: 3.73 µM
- TGI [38]: > 100 µM
- GI50 [39]: 19.1 µM
- TGI [39]: 89.7 µM
- GI50 [40]: 3.86 µM
- TGI [40]: 36.4 µM
- GI50 [41]: 4.42 µM
- TGI [41]: 58.6 µM
- GI50 [42]: 2780 nM
- TGI [42]: 10.4 µM
- GI50 [43]: 6.69 µM
- TGI [43]: > 100 µM
- GI50 [57]: 5.62 µM
- TGI [57]: > 100 µM
- GI50 [44]: 3.28 µM
- TGI [44]: 13.1 µM
- GI50 [45]: 34.2 µM
- TGI [45]: > 100 µM
- GI50 [46]: 4.78 µM
- TGI [46]: 54.6 µM
- GI50 [47]: 5.22 µM
- TGI [47]: > 100 µM
- GI50 [48]: 3630 nM
- TGI [48]: > 100 µM
- GI50 [49]: 3720 nM
- TGI [49]: > 100 µM
- GI50 [50]: 4.35 µM
- TGI [50]: > 100 µM
- GI50 [51]: 16.1 µM
- TGI [51]: > 100 µM
- GI50 [52]: 29.2 µM
- TGI [52]: > 100 µM
- GI50 [53]: 4.39 µM
- TGI [53]: 37.8 µM
- GI50 [54]: 24.1 µM
- TGI [54]: > 100 µM
- GI50 [55]: 3490 nM
- TGI [55]: 22.6 µM
- GI50 [56]: 3.45 µM
- TGI [56]: > 100 µM
